# Source: patent US20230332103A1, “Methods and Compositions for Generating Human Forebrain Neural Progenitor Cells and for Maturation Thereof to Parvalbumin+ Interneurons” (Trailhead Biosystems Inc., priority 2021, published 2023)
# Values joined by “and” are separate entries in the source; they are usually repeats but may differ in a detail not shown here. Identical values can stand only once. “Also recorded” adds a separate entry of the source.
# What was measured:
# [1] = system: stage 2 neural stem cells (cells treated with stage 1 and stage 2 media); experiment: HD-DoE experiment for stage 3 recipe, optimized for ASCL1; assay type: cell-based, human; conditions: for factor contribution on expression of ASCL1: positive, model optimized for maximum expression of ASCL1 at 1700, FIG. 9
# Method: To further guide the cells to medial ganglionic eminence progenitor fate, an additional HD-DoE experiment was performed for 3 days on cells that were treated with stage 1 and stage 2 media for total of 6 days prior to start of the experiment. This experiment included 13 effectors, LDN193189, A8301, GNF5837, AZD3147, GSI-XX, Takinib, PD0325901, PD173074, BLU9931, IGF-1, MHY1485, Purmorphamine and Prostratin. In this model, we focused on maximum expression of genes expressed in neuronal progenitor cells in medial ganglionic eminence (MGE) region including ASCL1, LHX6 and DLX1 (Silberberg et al. (2016) Neuron 92:59-74). When the model was optimized for maximum expression of ASCL1 at 1700, A8301, GSI-XX, Purmorphamine and Takinib, which is an inhibitor of TAK1 pathway, had the highest factor contributions, 18.1, 14.1, 12.7 and 10.1 respectively. […]
# [2] = system: stage 2 neural stem cells; experiment: factor criticality analysis (dynamic profile analysis) of stage 3 recipe; assay type: cell-based, human; parameters: unit not given here; conditions: other five factors present; for expression level of DLX1 when the effector is removed: 220 with all six factors; for expression level of LHX6 when the effector is removed: 240 with all six factors; for expression level of ASCL1 when the effector is removed: 1650 with all six factors
# Method: To assess the impact of the elimination of each validated factor, dynamic profile analysis was used and compared the expression level of genes of interest in absence of each finalized factor while others are present. […] In the stage 3 recipe, each of the six finalized factors were removed while the other five factors remained present and the expression levels of ASCL1, DLX1 and LHX6 were assessed compared to the presence of all six factors. […] As expected, in the absence of IGF-1, the value of DLX1 increases to 410, however, ASCL1 and LHX6 decreased to 1390 and 220, respectively.
# [3] = system: human pluripotent stem cells; experiment: additional HD-DoE experiment for stage 1 (forebrain differentiation from pluripotency), optimized for FEZF2; assay type: cell-based; conditions: dynamic profile, FIG. 6
# Method: To identify the recipe for stage 1 of differentiation, 96 different combinations of effectors generated using Design-of-Experiments compression through D-optimality were robotically prepared. The effector combinations were prepared in a basal media and were subsequently added to the cells, which were then allowed to differentiate. Three days later RNA extraction was performed, and gene expression was obtained using quantitative PCR analysis. The data were normalized and modeled using partial least squares regression analysis to the effector design, resulting in the generation of gene-specific models, which after model tuning for maximal Q2 predictive power, provided explanation of the effectors ability to control the expression of individual genes, combinatorially, and individually. Solutions within the tested space could then be explored to address desirability.
# To further enhance the conditions for forebrain differentiation from pluripotency, an additional HD-DoE experiment was performed. Additional gene regulatory models were obtained that were used for preparation of the differentiation protocol. The factors in this experiment included LDN193189, PD173074, BLU9931, Purmorphamine, SC79, MK2206, ZM336372, PD0325901, CHIR99021, XAV939, UCLA-GP130, Tofacitinib and GO6983. […] Dynamic profile analysis was also used to assess the interaction between the effectors.
# [4] = system: forebrain-committed neural stem cells (stage 1 neural stem cells); experiment: HD-DoE 12-factor experiment for stage 2 recipe, optimized for NKX2-1; assay type: cell-based, human; conditions: for impact on expression of NKX2-1: model maximized for NKX2-1 / dynamic profile, FIG. 7 and 8
# Method: To further guide the differentiation of forebrain-committed neural stem cells to ventral forebrain neural stem cells at stage 2, a HD-DoE experiment was performed for 3 days after termination of stage 1 treatment. At this time, we focused on maximum expression of NKX2-1 that is expressed in ventral forebrain region and minimum expression of PAX6 that is expressed in dorsal forebrain region. This 12-factor experiment included LDN193189, BMP7, PD0325901, MK2206, A8301, XAV939, CHIR99021, Purmorphamine, SANT-1, AGN193109, TTNPB and GSI-XX.
# [5] = system: MGE progenitor cells; experiment: HD-DoE 12-factor experiment for stage 4 recipe, optimized for MEF2C; assay type: cell-based, human
# Description: These effectors are small molecules or proteins. They are commonly used during stepwise differentiation of stem cells to specific fates. The choice of the effectors was based on current literature on neural induction in forebrain region of developing brain and differentiation of stem cells to neural progenitors.
# To evaluate the effectors, experiments with at least 8 factors were designed that can assess the response of cells to 48 or more different combinations of effectors in a range of concentrations. To analyze the models, we focused on expression of genes involved in development and patterning of the forebrain interneurons maturation including LHX6 (Yuan et al. (2018) Elife, 7:e37382), DLX5 (Wang et al. (2010) J. Neuroscience 30:5334-5345), ASCL1 (Shi et al. (2016) J. Biol. Chem. 291:13560-13570). At later stages we focused on interneuron maturation genes including Parvalbumin and absence of somatostatin (Horn and Nicoll (2018) Proc. Natl. Acad. Sci. 115:589-594). The impacts of each effector on gene expression level are defined by a parameter called factor contribution that is calculated for each effector during the modeling.
# To identify the recipe of stage 4 of differentiation, 48 different combinations of effectors generated using Design-of-Experiments compression through D-optimality were robotically prepared. The effector combinations were prepared in a basal media and were subsequently added to the cells, which were then allowed to differentiate. Three days later RNA extraction was performed, and gene expression was obtained using quantitative PCR analysis. The data was normalized and modeled using partial least squares regression analysis to the effector design, resulting in the generation of gene-specific models, which after model tuning for maximal predictive power, provided explanation of the effectors ability to control the expression of individual genes, combinatorically, and individually. Solutions within the tested space could then be explored to address desirability. […] Valproic Acid can inhibit histone deaceylases and increase γ-aminobutyric acid (GABA). […] GDNF is the […] Glial cell line-derived neurotrophic factor and can activate the GDNF pathway.
# To find the set of factors that have the potential to optimize MEF2C in this experiment, a new assessment was done through dynamic profile analysis with focus on maximal expression of MEF2C (FIG. 20).
# [6] = system: human pluripotent stem cells; experiment: HD-DoE 12-factor experiment for stage 1 recipe, gene expression by quantitative PCR after 3 days; assay type: cell-based
# Description: This example utilizes a method of High-Dimensional Design of Experiments (HD-DoE), as previously described in Bukys et al. (2020) […] 23:101346. The method employs computerized design geometries to simultaneously test multiple process inputs and offers mathematical modeling of a deep effector/response space. The method allows for finding combinatorial signaling inputs that control a complex process, such as during cell differentiation. It allows testing of multiple plausible critical process parameters, as such parameters impact output responses, such as gene expression. Because gene expression provides hallmark features of the phenotype of, for example, a human cell, the method can be applied to identify, and understand, which signaling pathways control cell fate. In the current example, the HD-DOE method was applied with the intent to find conditions for induction of […] neural progenitor-expressed genes, directly from the pluripotent stem cell state. To develop the recipe for each stage, the impact of agonists and antagonists of multiple signaling pathways (herein called effectors) on the expression of two sets of 53 pre-selected genes, after a 3-day treatment, has been tested and modeled. These effectors are small molecules or proteins that are commonly used during stepwise differentiation of stem cells to specific fates. Choice of the effectors were based on current literature on neural induction in forebrain region of developing brain and differentiation of stem cells to neural progenitors. To test the effectors, experiments with at least 8 factors were designed that can assess the response of cells to 48 or more different combinations of effectors in a range of concentrations. To analyze the models, we focused on expression of genes involved in development and patterning of the anterior neuroectoderm and forebrain including OTX2 (Hoch et al. (2015) Cell Reports 12:482-494), SIX3 (Lagutin et al. (2003) Genes & Development 17:368-379) and FEZF2 (Zhang et al. (2014) Development 141:4794-[…]). At later stages we focused on dorsoventral patterning of telencephalon and gene expressed in ventral forebrain including NKX2-1 and absence of PAX6 which is a dorsal forebrain marker (Stoykova et al. (2000) J. Neurosci. 20:8042-8050). The impact of each effector on gene expression level is defined by a parameter called factor contribution that is calculated for each effector during the modeling. To identify the recipe for stage 1 of differentiation, 96 different combinations of effectors generated using Design-of-Experiments compression through D-optimality were robotically prepared. The effector combinations were prepared in a basal media and were subsequently added to the cells, which were then allowed to differentiate. Three days later RNA extraction was performed, and gene expression was obtained using quantitative PCR analysis. […] Solutions within the tested space could then be explored to address desirability. Optimizing for maximal expression of SIX3 at 3300 and FEZF2 1355 expression values led to robust solutions. This model was derived from testing 12 effectors including AGN193109, LDN193189, CHIR99021, XAV939, IGF2, Purmorphamine, 4-oxo-RA, TTNPB, SR11237, FGF8, PD0325901 and […]. […] The model was also optimized for maximum expression of FEZF2 separately at 3576 expression value to find any additional factors that can boost expression of forebrain genes. […] To find the set of factors that have the potential to optimize all 3 genes in this experiment, a new assessment was done through dynamic profile analysis with focus on maximal expression of OTX2, FEZF2 and SIX3.
# [7] = dynamic profile analysis, FIG. 10
# [8] = dynamic profile analysis, FIG. 4
structure (smiles),measurement,setting,value
Cc1cccc(-c2nn(C(=S)Nc3ccccc3)cc2-c2ccnc3ccccc23)n1 [A8301],impact on expression of ASCL1,[1]; [7],positive trends; also recorded: Positive impact
same,impact on expression of DLX1,[1]; [7],did not have a significant negative impact
same,impact on expression of LHX6,[1]; [7],positive trends; also recorded: Positive impact
same,factor contribution on expression of ASCL1,[1],18.1 and 18
same,expression level of DLX1 when the effector is removed,[2],did not change significantly
same,expression level of LHX6 when the effector is removed,[2],did not change significantly
same,expression level of ASCL1 when the effector is removed,[2],1000
Cc1ccc(NC(=O)Nc2cc(C(F)(F)F)ccc2F)cc1Nc1ccc2c(c1)NC(=O)/C2=C\c1ccc[nH]1 [GNF5837],factor contribution on expression of ASCL1,[1],9.4
same,expression level of DLX1 when the effector is removed,[2],did not have a significant impact
same,expression level of LHX6 when the effector is removed,[2],160
same,expression level of ASCL1 when the effector is removed,[2],1300
COc1ccc2c(c1)c(C1=C(c3c[nH]c4ccccc34)C(=O)NC1=O)cn2CCCN(C)C [GO6983],impact on expression of FEZF2,[3],positive impact
NC1(c2ccc(-c3nc4ccn5c(=O)[nH]nc5c4cc3-c3ccccc3)cc2)CCC1 [MK2206],impact on expression of FEZF2,[3],positive impact
same,impact on expression of NKX2-1,[4],increase its expression level
Cc1nn(-c2ccccc2)c(C)c1/C=N/N1CCN(Cc2ccccc2)CC1 [SANT-1],impact on expression of NKX2-1,[4],negative impact
same,factor contribution on expression of NKX2-1,"[4]; negative role, model optimized for maximum expression of NKX2-1, FIG. 7",26.3
NC(=O)c1ccc(-c2nc(-c3ccc4c(c3)OCO4)c(-c3ccccn3)[nH]2)cc1 [SB431542],impact on expression of MEF2C,"[5]; dynamic profile analysis, FIG. 20",negative effect
same,factor contribution on expression of MEF2C,"[5]; significant negative effect, model optimized for maximal expression of MEF2C",7.9
C/C(=C\c1ccc(C(=O)O)cc1)c1ccc2c(c1)C(C)(C)CCC2(C)C [TTNPB],"factor contribution, important input for high expression of SIX3","[6]; FIG. 2 legend, model optimized for maximum expression of SIX3 as printed",23.7
same,impact on expression of OTX2,[6]; [8],negative impact
same,impact on expression of SIX3,[6]; [8],negative impact
same,factor contribution on expression of FEZF2,"[6]; positive impact, model optimized for maximum expression of FEZF2",24
same,factor contribution on expression of SIX3,"[6]; significant negative effect, model optimized for maximal expression of SIX3",21
same,factor contribution on expression of OTX2,"[6]; significant negative impact, model of maximum expression of OTX2",29 and 28.8
same,impact on expression of NKX2-1,[4],negative impact
CCCn1/c(=N/C(=O)c2cccc(C(N)=O)c2)[nH]c2ccccc21 [Takinib],factor contribution on expression of ASCL1,[1],10.1
same,expression level of DLX1 when the effector is removed,[2],180
same,expression level of LHX6 when the effector is removed,[2],170
